Measurements published in PubChem BioAssay (NCI).
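Briefly, cells in 96-well plates were exposed to five compound concentrations for 48 h, and endpoints were estimated by linear interpolation. TGI: concentration producing complete growth inhibition.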

Legend:
Experiment in all cases: NCI-60 cell line screen, 48 h
[1] = system: A498 renal
[2] = system: PC-3 prostate
[3] = system: HT29 colon
[4] = system: SK-OV-3 ovarian
[5] = system: DU-145 prostate
[6] = system: K-562 leukemia
[7] = system: MDA-MB-435
[8] = system: OVCAR-8 ovarian
[9] = system: RPMI-8226 leukemia
[10] = system: OVCAR-4 ovarian
[11] = system: HOP-62 NSCLC
[12] = system: UACC-62 melanoma
[13] = system: CCRF-CEM leukemia
[14] = system: SNB-19 CNS
[15] = system: U251 CNS
[16] = system: HCC-2998 colon
[17] = system: LOX IMVI melanoma
[18] = system: ACHN renal
[19] = system: RXF 393 renal
[20] = system: SK-MEL-2 melanoma
[21] = system: MDA-N
[22] = system: OVCAR-5 ovarian
[23] = system: SN12C renal
[24] = system: OVCAR-3 ovarian
[25] = system: EKVX NSCLC
[26] = system: M14 melanoma
[27] = system: SK-MEL-5 melanoma
[28] = system: HS 578T breast
[29] = system: MDA-MB-231 breast
[30] = system: SK-MEL-28 melanoma
[31] = system: UACC-257 melanoma
[32] = system: KM12 colon
[33] = system: 786-0 renal
[34] = system: NCI-H23 lung
[35] = system: BT-549 breast
[36] = system: IGROV1 ovarian
[37] = system: MALME-3M melanoma
[38] = system: MOLT-4 leukemia
[39] = system: SW-620 colon
[40] = system: NCI-H522 lung
[41] = system: CAKI-1 renal
[42] = system: HL-60(TB) leukemia
[43] = system: TK-10 renal
[44] = system: MCF7 breast
[45] = system: T-47D breast
[46] = system: HOP-92 NSCLC
[47] = system: SF-539 CNS
[48] = system: COLO 205 colon
[49] = system: SF-268 CNS
[50] = system: SF-295 CNS
[51] = system: A549 NSCLC
[52] = system: NCI/ADR-RES ovarian
[53] = system: HCT-15 colon
[54] = system: NCI-H460 lung
[55] = system: SNB-75 CNS
[56] = system: UO-31 renal
[57] = system: HCT-116 colon
[58] = system: SR leukemia
[59] = system: NCI-H226 lung

CCOP(=O)(OCC)C(Cc1ccc(Cl)cc1)NS(=O)(=O)c1ccc(C)cc1 (stereo not drawn)
TGI [1]: > 100 µM
TGI [2]: > 100 µM
TGI [3]: > 100 µM
TGI [4]: > 100 µM
TGI [5]: > 100 µM
TGI [6]: > 100 µM
TGI [7]: > 100 µM
TGI [8]: > 100 µM
TGI [9]: > 100 µM
TGI [10]: > 100 µM
TGI [11]: > 100 µM
TGI [12]: > 100 µM
TGI [13]: > 100 µM
TGI [14]: > 100 µM
TGI [15]: > 100 µM
TGI [16]: > 100 µM
TGI [17]: > 100 µM
TGI [18]: > 100 µM
TGI [19]: > 100 µM
TGI [20]: > 100 µM
TGI [21]: > 100 µM
TGI [22]: > 100 µM
TGI [23]: > 100 µM
TGI [24]: > 100 µM
TGI [25]: > 100 µM
TGI [26]: > 100 µM
TGI [27]: > 100 µM
TGI [28]: > 100 µM
TGI [29]: > 100 µM
TGI [30]: > 100 µM
TGI [31]: > 100 µM
TGI [32]: > 100 µM
TGI [33]: > 100 µM
TGI [34]: > 100 µM
TGI [35]: > 100 µM
TGI [36]: > 100 µM
TGI [37]: > 100 µM
TGI [38]: > 100 µM
TGI [39]: > 100 µM
TGI [40]: > 100 µM
TGI [41]: > 100 µM
TGI [42]: > 100 µM
TGI [43]: > 100 µM
TGI [44]: > 100 µM
TGI [45]: > 100 µM
TGI [46]: > 100 µM
TGI [47]: > 100 µM
TGI [48]: > 100 µM
TGI [49]: > 100 µM
TGI [50]: > 100 µM
TGI [51]: > 100 µM
TGI [52]: > 100 µM
TGI [53]: > 100 µM
TGI [54]: > 100 µM

COc1ccccc1C1c2cc3c(cc2OC(N2CCCC2)C1C)OCO3 (stereo not drawn)
TGI [1]: 30.3 µM
TGI [2]: 32.4 µM
TGI [3]: 39.5 µM
TGI [5]: 26.9 µM
TGI [6]: > 53.3 µM
TGI [7]: 34.2 µM
TGI [8]: 64 µM
TGI [9]: 38.8 µM
TGI [10]: 70.5 µM
TGI [11]: 29.4 µM
TGI [12]: 38.4 µM
TGI [13]: 47.8 µM
TGI [14]: 47.9 µM
TGI [15]: 39.1 µM
TGI [55]: 27.3 µM
TGI [16]: 32.9 µM
TGI [17]: 38.1 µM
TGI [56]: 33 µM
TGI [18]: > 57.5 µM
TGI [19]: 36.9 µM
TGI [20]: 29.8 µM
TGI [21]: 28.9 µM
TGI [22]: 41.1 µM
TGI [23]: 39.7 µM
TGI [24]: 32.4 µM
TGI [25]: 50.6 µM
TGI [26]: 30.1 µM
TGI [27]: 29.4 µM
TGI [28]: 30 µM
TGI [30]: 48 µM
TGI [31]: 48.1 µM
TGI [32]: 39.5 µM
TGI [33]: 35.3 µM
TGI [34]: > 31.6 µM
TGI [35]: 48 µM
TGI [36]: 51.5 µM
TGI [37]: 43.2 µM
TGI [57]: 29.1 µM
TGI [39]: 44.7 µM
TGI [40]: 42.1 µM
TGI [41]: 31.4 µM
TGI [58]: 31.1 µM
TGI [42]: 49 µM
TGI [43]: 47.9 µM
TGI [44]: 39.4 µM
TGI [45]: 25.5 µM
TGI [46]: 20.6 µM
TGI [47]: 31.7 µM
TGI [48]: 35.6 µM
TGI [49]: 30.9 µM
TGI [50]: 39.3 µM
TGI [51]: 46 µM
TGI [52]: 53.7 µM
TGI [53]: 44.6 µM
TGI [54]: 40.9 µM

N#Cc1c(-c2ccccc2)cc(-c2ccccc2)n(C2OCC(O)C(O)C2O)c1=S (stereo not drawn)
TGI [1]: 64.2 µM
TGI [2]: 29.4 µM
TGI [3]: 80 µM
TGI [4]: 27.3 µM
TGI [5]: 49.3 µM
TGI [6]: > 100 µM
TGI [7]: 45.2 µM
TGI [8]: 43.7 µM
TGI [9]: 34.7 µM
TGI [10]: 70.6 µM
TGI [11]: 64.7 µM
TGI [12]: 16.1 µM
TGI [13]: 93.1 µM
TGI [14]: 89.7 µM
TGI [15]: 30.4 µM
TGI [55]: 66.3 µM
TGI [17]: 31.9 µM
TGI [56]: 54 µM
TGI [18]: 38.1 µM
TGI [19]: 35.6 µM
TGI [20]: 62.3 µM
TGI [21]: 55 µM
TGI [22]: 58.5 µM
TGI [24]: 43.2 µM
TGI [25]: 90.2 µM
TGI [26]: 53.3 µM
TGI [27]: 27.9 µM
TGI [28]: > 100 µM
TGI [29]: 23.9 µM
TGI [30]: 77.1 µM
TGI [31]: 75.4 µM
TGI [32]: 27.2 µM
TGI [33]: 49.1 µM
TGI [34]: 46.4 µM
TGI [35]: 44 µM
TGI [36]: 33.5 µM
TGI [37]: 81 µM
TGI [57]: 28.4 µM
TGI [38]: > 100 µM
TGI [39]: 33.5 µM
TGI [40]: 37.9 µM
TGI [41]: 61.5 µM
TGI [43]: 58.2 µM
TGI [44]: 41.7 µM
TGI [45]: 26.6 µM
TGI [47]: 41.9 µM
TGI [59]: 35.9 µM
TGI [48]: 56.9 µM
TGI [49]: 80 µM
TGI [50]: 39 µM
TGI [51]: 57.4 µM
TGI [52]: 86.5 µM
TGI [53]: 60.6 µM
TGI [54]: 70.6 µM
